Measurements from PubChem BioAssay AID192 (DTP/NCI, 2004).
Values joined by “and” are separate entries in the source; they are usually repeats but may differ in a detail not shown here. Identical values can stand only once. Toxic doses and inconclusive results are not listed. Numbered stars: 1 amine (or outer) side, 2 acyl side, 3 side chain; on linkers, the order of the positions; unused ones are H or OH. Bridge positions count the residues as written; N and C are the ends. Square brackets hold non-standard residues; d marks the D form. Peptide text beside a SMILES is read from it. I, II: the chains in the order shown. * marks the point of attachment. Actinocin(1to9) = Cc1c2oc3c(C)ccc(C(=O)[*:2])c3nc-2c(C(=O)[*:1])c(N)c1=O; NMeV = CN[CH](C(=O)O)C(C)C; Bn = c1ccc(C*)cc1; Sar = CNCC(=O)O

Test system: BDF1 mice, B16 melanoma ip, median survival T/C
Assay: NCI In Vivo Anticancer Drug Screen. Data for tumor model B16 Melanoma (intraperitoneal) in B6D2F1 (BDF1) mice
Conditions: endpoint: median survival time, higher = longer survival
How it was run: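 Compounds were tested in mice carrying transplantable tumors. Survival or tumor size was recorded, and each value is the treated-group measurement (T) divided by that of the vehicle-treated control group (C).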

[1] = dose: 3.12 mg/kg/injection, schedule: Q01DX009 (ip), vehicle: Klucel (hydroxypropylcellulose) (HPC)
[2] = dose: 6.25 mg/kg/injection, schedule: Q01DX009 (ip), vehicle: Klucel (hydroxypropylcellulose) (HPC)
[3] = dose: 12.5 mg/kg/injection, schedule: Q01DX009 (ip), vehicle: Klucel (hydroxypropylcellulose) (HPC)
[4] = dose: 25.0 mg/kg/injection, schedule: Q01DX009 (ip), vehicle: Klucel (hydroxypropylcellulose) (HPC)
[5] = dose: 100.0 mg/kg/injection, schedule: Q04DX003 (ip), vehicle: saline with Tween-80
[6] = dose: 200.0 mg/kg/injection, schedule: Q04DX003 (ip), vehicle: saline with Tween-80
[7] = dose: 400.0 mg/kg/injection, schedule: Q04DX003 (ip), vehicle: saline with Tween-80
[8] = dose: 50.0 mg/kg/injection, schedule: Q01DX009 (ip), vehicle: Klucel (hydroxypropylcellulose) (HPC)
[9] = dose: 100.0 mg/kg/injection, schedule: Q01DX009 (ip), vehicle: Klucel (hydroxypropylcellulose) (HPC)
[10] = dose: 100.0 mg/kg/injection, schedule: Q01DX009 (ip), vehicle: saline with Tween-80
[11] = dose: 200.0 mg/kg/injection, schedule: Q01DX009 (ip), vehicle: saline with Tween-80
[12] = dose: 25.0 mg/kg/injection, schedule: Q04DX003 (ip), vehicle: saline with Tween-80
[13] = dose: 50.0 mg/kg/injection, schedule: Q04DX003 (ip), vehicle: saline with Tween-80

O=C(O)c1ccc(C(=O)O)c(C(=O)O)c1.[NH-]C1CCCCC1[NH-].[Pt+2] was tested, and the T/C (dose: 0.19 mg/kg/injection, schedule: Q01DX009 (ip), vehicle: sodium bicarbonate) was 151 % of control, the T/C (dose: 0.39 mg/kg/injection, schedule: Q01DX009 (ip), vehicle: sodium bicarbonate) was 118 % of control and the T/C (dose: 0.4 mg/kg/injection, schedule: Q01DX009 (ip), vehicle: sodium bicarbonate) was 116 % of control. The T/C (dose: 0.78 mg/kg/injection, schedule: Q01DX009 (ip), vehicle: sodium bicarbonate) was 185 % of control, the T/C (dose: 0.8 mg/kg/injection, schedule: Q01DX009 (ip), vehicle: other) was 165 % of control and the T/C (dose: 1.56 mg/kg/injection, schedule: Q01DX009 (ip), vehicle: other) was 181 % of control. The T/C (dose: 1.56 mg/kg/injection, schedule: Q01DX009 (ip), vehicle: sodium bicarbonate) was 158 % of control and 159 % of control, the T/C (dose: 1.6 mg/kg/injection, schedule: Q01DX009 (ip), vehicle: other) was 157 % of control and the T/C (dose: 1.6 mg/kg/injection, schedule: Q01DX009 (ip), vehicle: sodium bicarbonate) was 161 % of control. For the same compound, the T/C (dose: 3.12 mg/kg/injection, schedule: Q01DX009 (ip), vehicle: other) was 169 % of control, the T/C (dose: 3.2 mg/kg/injection, schedule: Q01DX009 (ip), vehicle: sodium bicarbonate) was 168 % of control and the T/C (dose: 4.8 mg/kg/injection, schedule: Q01DX009 (ip), vehicle: sodium bicarbonate) was 169 % of control. The T/C (dose: 6.25 mg/kg/injection, schedule: Q01DX009 (ip), vehicle: other) was 171 % of control.
For CN1C2CCC1CNC2, the T/C (dose: 100.0 mg/kg/injection, schedule: Q04DX003 (ip), vehicle: saline) was 105 % of control, the T/C (dose: 200.0 mg/kg/injection, schedule: Q04DX003 (ip), vehicle: saline) was 105 % of control and the T/C (dose: 400.0 mg/kg/injection, schedule: Q04DX003 (ip), vehicle: saline) was 100 % of control.
With CCCNCCNc1ccc(NCCNCCC)c2c1C(=O)c1ccccc1C2=O the T/C (dose: 16.0 mg/kg/injection, schedule: Q01DX009 (ip), vehicle: acid diluted with saline) was 112 % of control and the T/C (dose: 32.0 mg/kg/injection, schedule: Q01DX009 (ip), vehicle: acid diluted with saline) was 99 % of control.
c1cc2ccc3ccc(C4CO4)c4ccc(c1)c2c34 (stereo unspecified) was tested, and the T/C [1] was 95 % of control, the T/C [2] was 96 % of control and the T/C [3] was 100 % of control. The T/C [4] was 86 % of control.
For OC(Cc1cnc2ccccc2n1)(C(F)(F)F)C(F)(F)F, the T/C [5] was 105 % of control, the T/C [6] was 105 % of control and the T/C [7] was 102 % of control.
With CCCCNC(=O)Nc1cc(C)c(C)cc1C the T/C (dose: 50.0 mg/kg/injection, schedule: Q01DX009 (ip), vehicle: gum acacia) was 95 % of control, the T/C (dose: 100.0 mg/kg/injection, schedule: Q01DX009 (ip), vehicle: gum acacia) was 99 % of control and the T/C (dose: 200.0 mg/kg/injection, schedule: Q01DX009 (ip), vehicle: gum acacia) was 91 % of control.
In the case of CS(=O)(=O)OCCCCCCCCCOS(C)(=O)=O, the T/C [4] was 94 % of control, the T/C [8] was 88 % of control and the T/C [9] was 102 % of control.
In the case of NC1=NN(c2ccccc2)CC1, the T/C (dose: 0.5 mg/kg/injection, schedule: Q04DX003 (ip), vehicle: saline with Tween-80) was 95 % of control, the T/C (dose: 5.0 mg/kg/injection, schedule: Q01DX009 (ip), vehicle: saline with Tween-80) was 104 % of control and the T/C (dose: 10.0 mg/kg/injection, schedule: Q01DX009 (ip), vehicle: saline with Tween-80) was 100 % of control. For the same compound, the T/C (dose: 10.0 mg/kg/injection, schedule: Q04DX003 (ip), vehicle: saline with Tween-80) was 95 % of control, the T/C (dose: 20.0 mg/kg/injection, schedule: Q01DX009 (ip), vehicle: saline with Tween-80) was 100 % of control and the T/C (dose: 20.0 mg/kg/injection, schedule: Q04DX003 (ip), vehicle: saline with Tween-80) was 95 % of control.
In the case of C[C@]12CC[C@H]3C(=CCc4cc(O)ccc43)[C@@H]1C/C(=N\O)C2=O, the T/C [10] was 95 % of control, the T/C [11] was 102 % of control and the T/C (dose: 400.0 mg/kg/injection, schedule: Q01DX009 (ip), vehicle: saline with Tween-80) was 90 % of control.
For OC(CCN1CCCC1)(c1ccccc1)C1CCCCC1 (stereo unspecified), the T/C [2] was 101 % of control, the T/C [4] was 98 % of control and the T/C [8] was 93 % of control. For the same compound, the T/C [9] was 87 % of control.
In the case of O=C(Nc1ccc2c(c1)Cc1cc(Br)ccc1-2)C(F)(F)F, the T/C [12] was 103 % of control, the T/C [13] was 109 % of control and the T/C [5] was 95 % of control and 96 % of control. For the same compound, the T/C [7] was 86 % of control.
In the case of CCC(C)C1NC(=O)C(NC(=O)c2c3nc4c(C(=O)NC5C(=O)NC(C(C)CC)C(=O)N6CCCC6C(=O)N(C)CC(=O)N(C)C(C(C)C)C(=O)OC5C)ccc(C)c4oc-3c(C)c(=O)c2N)C(C)OC(=O)C(C(C)C)N(C)C(=O)CN(C)C(=O)C2CCCN2C1=O (stereo unspecified) (I: TIP[Sar][NMeV] / II: TIP[Sar][NMeV]; ester I:1-I:C, II:1-II:C; linker I:N-II:N via Actinocin(1to9); configuration not given here), the T/C (dose: 0.2 mg/kg/injection, schedule: Q01DX001 (ip), vehicle: water) was 120 % of control, the T/C (dose: 0.4 mg/kg/injection, schedule: Q01DX001 (ip), vehicle: water) was 114 % of control and the T/C (dose: 0.8 mg/kg/injection, schedule: Q01DX001 (ip), vehicle: water) was 123 % of control. The T/C (dose: 12.5 micrograms/kg/injection, schedule: Q01DX009 (ip), vehicle: water) was 108 % of control, the T/C (dose: 25.0 micrograms/kg/injection, schedule: Q01DX009 (ip), vehicle: water) was 119 % of control and the T/C (dose: 75.0 micrograms/kg/injection, schedule: Q04DX003 (ip), vehicle: water) was 115 % of control. For the same compound, the T/C (dose: 150.0 micrograms/kg/injection, schedule: Q04DX003 (ip), vehicle: water) was 114 % of control.
In the case of COC(=O)C(CC(C)C)NC(=O)C(N)Cc1ccc(OCc2ccccc2)cc1 (stereo unspecified) (H-Tyr(Bn)-Leu-OMe; configuration not given here), the T/C [3] was 110 % of control and the T/C [4] was 96 % of control.
For O=C(Nc1ccc(F)cc1)c1cccc(C(=O)Nc2ccc(F)cc2)c1, the T/C [4] was 114 % of control, the T/C [8] was 101 % of control and the T/C [9] was 96 % of control.
O=C1CCCNc2ccccc21 was tested, and the T/C [12] was 100 % of control, the T/C [13] was 102 % of control and the T/C (dose: 75.0 mg/kg/injection, schedule: Q04DX003 (ip), vehicle: saline with Tween-80) was 114 % of control. For the same compound, the T/C [5] was 101 % of control, the T/C [6] was 103 % of control and the T/C [7] was 90 % of control.
In the case of COC(=O)C1C2CC3c4[nH]c5cc(OC)ccc5c4CCN3CC2CC(OC2CCCCO2)C1OC (stereo unspecified), the T/C (dose: 0.19 mg/kg/injection, schedule: Q01DX009 (ip), vehicle: Klucel (hydroxypropylcellulose) (HPC)) was 112 % of control, the T/C (dose: 0.39 mg/kg/injection, schedule: Q01DX009 (ip), vehicle: Klucel (hydroxypropylcellulose) (HPC)) was 104 % of control and the T/C (dose: 0.78 mg/kg/injection, schedule: Q01DX009 (ip), vehicle: Klucel (hydroxypropylcellulose) (HPC)) was 103 % of control. For the same compound, the T/C (dose: 0.78 mg/kg/injection, schedule: Q04DX003 (ip), vehicle: Klucel (hydroxypropylcellulose) (HPC)) was 91 % of control, the T/C (dose: 1.56 mg/kg/injection, schedule: Q01DX009 (ip), vehicle: Klucel (hydroxypropylcellulose) (HPC)) was 101 % of control and the T/C (dose: 1.56 mg/kg/injection, schedule: Q04DX003 (ip), vehicle: Klucel (hydroxypropylcellulose) (HPC)) was 90 % of control. For the same compound, the T/C [1] was 111 % of control, the T/C (dose: 3.12 mg/kg/injection, schedule: Q04DX003 (ip), vehicle: Klucel (hydroxypropylcellulose) (HPC)) was 96 % of control and 122 % of control and the T/C (dose: 6.25 mg/kg/injection, schedule: Q04DX003 (ip), vehicle: Klucel (hydroxypropylcellulose) (HPC)) was 98 % of control. The T/C (dose: 12.5 mg/kg/injection, schedule: Q04DX003 (ip), vehicle: Klucel (hydroxypropylcellulose) (HPC)) was 95 % of control and 111 % of control, the T/C (dose: 25.0 mg/kg/injection, schedule: Q04DX003 (ip), vehicle: Klucel (hydroxypropylcellulose) (HPC)) was 113 % of control and the T/C (dose: 50.0 mg/kg/injection, schedule: Q04DX003 (ip), vehicle: Klucel (hydroxypropylcellulose) (HPC)) was 111 % of control. The T/C (dose: 100.0 mg/kg/injection, schedule: Q04DX003 (ip), vehicle: Klucel (hydroxypropylcellulose) (HPC)) was 100 % of control.
With O=c1[nH]c(-c2ccccc2)c(-c2ccccc2)[nH]1 the T/C [10] was 90 % of control and the T/C [11] was 95 % of control.
